Data on four compounds can be found in ChEMBL document CHEMBL5038572, “Thermodynamic Dissection of Potency and Selectivity of Cytosolic Hsp90 Inhibitors” (J Med Chem, 2021).

The source made the active and inactive calls. No cut-off for these calls is given here.

For assay [1], the target named is T1, Heat shock protein HSP 90-alpha (Homo sapiens, UniProt P07900). Kind of assay: Binding affinity to human HSP90-alpha N-terminal domain assessed as dissociation constant at 100 uM at 25 degC by isothermal titration calorimetry.
Assay [2] addresses T1, Heat shock protein HSP 90-alpha. Kind of assay: Binding affinity to human HSP90-alpha assessed as change in heat capacity at 20 to 30 degC by isothermal titration calorimetry. On the technique in general: Isothermal titration calorimetry measures the heat released or taken up as one component is titrated into another.
Assay [3] has the same target. Kind of assay: Inhibition of FITC-GDA binding to human HSP90-alpha incubated for 2 hrs followed by FITC-GDA addition and measured after 5 hrs by fluorescence polarization competitive binding assay. (Polarisation of emitted light reports the rotation of a fluorescent probe.)
Assay [4] has as its target Heat shock protein HSP 90-beta (Homo sapiens, UniProt P08238). Kind of assay: Binding affinity to human HSP90-beta by fluorescence polarization competitive binding assay.
In a further assay the target is Endoplasmin (Homo sapiens, UniProt P14625). Kind of assay: Binding affinity to GRP94 (unknown origin) by fluorescence polarization competitive binding assay.
Assay [5] has as its target T2, Heat shock protein 75 kDa, mitochondrial (Homo sapiens, UniProt Q12931).
T2 sequence (Q12931 whole entry): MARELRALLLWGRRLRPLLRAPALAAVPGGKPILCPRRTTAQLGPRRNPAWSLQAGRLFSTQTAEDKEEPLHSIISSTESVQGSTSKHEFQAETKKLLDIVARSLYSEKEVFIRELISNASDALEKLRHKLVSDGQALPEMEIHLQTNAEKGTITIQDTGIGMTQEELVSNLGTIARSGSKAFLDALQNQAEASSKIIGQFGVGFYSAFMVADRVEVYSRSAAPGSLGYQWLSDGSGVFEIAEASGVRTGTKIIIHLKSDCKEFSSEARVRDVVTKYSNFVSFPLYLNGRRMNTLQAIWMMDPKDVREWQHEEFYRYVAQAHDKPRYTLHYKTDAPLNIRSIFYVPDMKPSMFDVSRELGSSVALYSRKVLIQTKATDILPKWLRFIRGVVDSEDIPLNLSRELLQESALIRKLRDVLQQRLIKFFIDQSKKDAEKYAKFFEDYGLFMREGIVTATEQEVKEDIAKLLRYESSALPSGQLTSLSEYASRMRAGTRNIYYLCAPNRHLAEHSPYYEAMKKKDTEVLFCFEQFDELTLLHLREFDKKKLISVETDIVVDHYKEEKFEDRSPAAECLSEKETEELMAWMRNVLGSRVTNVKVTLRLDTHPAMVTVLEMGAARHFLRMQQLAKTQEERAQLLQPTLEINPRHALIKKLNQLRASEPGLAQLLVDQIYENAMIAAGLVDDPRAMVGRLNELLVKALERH
Kind of assay: Binding affinity to TRAP1 (unknown origin) by fluorescence polarization competitive binding assay.

For assay [6], the target named is T1, Heat shock protein HSP 90-alpha. Kind of assay: Binding affinity to human HSP90-alpha N-terminal domain assessed as change in enthalpy by measuring dissociation constant at 100 uM at 25 degC by isothermal titration calorimetry.
The target is the same in assay [7]. Kind of assay: Binding affinity to human HSP90-alpha at protein to compound molar ratio of 1:1.
The target is the same in assay [8]. Kind of assay: Binding affinity to human HSP90-alpha N-terminal domain assessed as gibbs free energy change at 100 uM by isothermal titration calorimetry.
For assay [9] the target is unchanged. Kind of assay: Binding affinity to human HSP90-alpha N-terminal domain assessed as change in enthalpy at 100 uM by isothermal titration calorimetry.
For assay [10] the target is unchanged. Kind of assay: Binding affinity to human HSP90-alpha N-terminal domain assessed as change in entropy at 100 uM by isothermal titration calorimetry.

Heat shock protein HSP 90-beta, sequence (P08238 whole entry): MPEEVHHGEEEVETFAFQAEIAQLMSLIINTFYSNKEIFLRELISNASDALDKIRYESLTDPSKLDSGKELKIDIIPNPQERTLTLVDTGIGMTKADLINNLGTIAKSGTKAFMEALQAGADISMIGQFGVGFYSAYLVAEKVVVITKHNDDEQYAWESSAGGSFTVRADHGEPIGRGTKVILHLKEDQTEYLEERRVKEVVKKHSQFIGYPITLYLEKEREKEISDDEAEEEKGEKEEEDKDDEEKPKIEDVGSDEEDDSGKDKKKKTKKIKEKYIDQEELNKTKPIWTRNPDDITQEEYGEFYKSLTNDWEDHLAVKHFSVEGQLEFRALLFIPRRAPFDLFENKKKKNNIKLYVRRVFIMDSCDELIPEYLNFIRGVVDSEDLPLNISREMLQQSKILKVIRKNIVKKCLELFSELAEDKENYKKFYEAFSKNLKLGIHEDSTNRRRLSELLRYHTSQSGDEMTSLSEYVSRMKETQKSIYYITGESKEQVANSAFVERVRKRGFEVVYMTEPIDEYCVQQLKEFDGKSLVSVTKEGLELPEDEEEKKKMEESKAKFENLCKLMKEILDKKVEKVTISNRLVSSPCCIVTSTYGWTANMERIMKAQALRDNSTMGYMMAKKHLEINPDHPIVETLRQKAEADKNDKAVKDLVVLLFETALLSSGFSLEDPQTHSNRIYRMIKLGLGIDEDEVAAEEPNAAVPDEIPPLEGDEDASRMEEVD
Endoplasmin, sequence (P14625 whole entry): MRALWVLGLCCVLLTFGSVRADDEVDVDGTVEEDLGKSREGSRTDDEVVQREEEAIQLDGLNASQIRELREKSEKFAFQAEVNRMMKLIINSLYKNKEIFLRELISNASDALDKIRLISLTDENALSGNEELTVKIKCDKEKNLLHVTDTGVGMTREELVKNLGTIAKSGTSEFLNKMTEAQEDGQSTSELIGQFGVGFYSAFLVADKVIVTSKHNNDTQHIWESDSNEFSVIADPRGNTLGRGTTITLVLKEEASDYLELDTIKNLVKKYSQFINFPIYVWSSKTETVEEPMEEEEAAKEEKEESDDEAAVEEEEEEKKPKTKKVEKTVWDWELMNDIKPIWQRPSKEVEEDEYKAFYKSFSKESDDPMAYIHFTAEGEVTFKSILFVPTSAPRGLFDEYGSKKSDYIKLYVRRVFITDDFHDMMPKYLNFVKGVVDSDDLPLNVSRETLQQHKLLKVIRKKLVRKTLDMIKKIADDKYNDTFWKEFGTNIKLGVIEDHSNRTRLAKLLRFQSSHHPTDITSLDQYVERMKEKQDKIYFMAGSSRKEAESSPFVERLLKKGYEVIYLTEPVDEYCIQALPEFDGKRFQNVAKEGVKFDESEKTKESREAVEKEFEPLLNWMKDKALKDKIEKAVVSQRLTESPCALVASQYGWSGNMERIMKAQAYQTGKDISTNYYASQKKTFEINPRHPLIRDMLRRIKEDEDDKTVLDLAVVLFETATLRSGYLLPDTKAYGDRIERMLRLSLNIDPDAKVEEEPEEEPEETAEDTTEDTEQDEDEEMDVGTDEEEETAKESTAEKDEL

In the case of `CCc1cc(C(N)=O)ccc1-n1nc(C(C)C)c2c(-n3cnc(-c4cnn(C)c4)c3)ccnc21` [TAS-116], the Kd (in general, a measure of binding affinity in units of concentration) in [1] came out at 0.17 µM. The DeltaCp in assay [2] is -0.29 kcal/mol.K.

For `NC(=O)c1ccc(-c2nccc3c(-n4cnc(-c5ccccc5)c4)ccnc23)cc1NC1CCC(O)CC1` (stereo not given), the Ki (usually the dissociation constant of the complex between target and ligand, obtained from inhibition or displacement) in assay [3] is 13 µM; in assay [4], 17 µM; on Endoplasmin, above 300 µM; in assay [5], above 300 µM.

As for `CC(C)c1n[nH]c2nccc(-n3cnc(-c4cnn(C)c4)c3)c12`, the IC50 (commonly the concentration that gives 50% inhibition) is 300 µM in [3], 218 µM in assay [4], above 300 µM at Endoplasmin and above 300 µM in [5].

Regarding `CC(C)c1n[nH]c2nccc(-n3cnc(-c4cccnc4)c3)c12`, the IC50 in assay [3] is 293 µM; in [4], 89 µM; at Endoplasmin it was above 300 µM; in assay [5], above 300 µM. The Kd in assay [6] amounted to 2.7 µM. The result in [7] was Active. The deltaG in assay [8] is -7.6 kcal/mol. The deltaH in [9] was -5.7 kcal/mol. Besides, in assay [10], the -TdeltaS was -1.9 kcal/mol. Besides, in [2], the DeltaCp was 0.56 kcal/mol.K.
